Reference: patent US20220218715A1, “NOVEL USE OF PYRROLO-PYRIDINE DERIVATIVE COMPOUND FOR PREVENTION AND/OR TREATMENT OF CANCER” (VORONOI CO., LTD., priority 2019, published 2022)

Assays:
[1] = target: T1, PHKG2 (Homo sapiens, UniProt P15735); assay: scanMAX Kinase analysis panel (DiscoverX); assay type: binding; settings: 1 μM in DMSO
T1 construct: purchased DiscoverX
Text: (§1) [(Example Compound−Positive Control)/(Negative Control−Positive Control)×100]

[2] = target: T2, PLK4 (Homo sapiens, UniProt O00444); assay: scanMAX Kinase analysis panel (DiscoverX); assay type: binding; settings: 1 μM in DMSO
T2 construct: purchased DiscoverX scanMAX Kinase analysis panel
Text: as §1

[3] = target: T3, STK33 (Homo sapiens, UniProt Q9BYT3); assay: scanMAX Kinase analysis panel (DiscoverX); assay type: binding; settings: 1 μM in DMSO
T3 construct: purchased DiscoverX
Text: as §1

[4] = target: T4, STK39 (Homo sapiens, UniProt Q9UEW8); assay: scanMAX Kinase analysis panel (DiscoverX); assay type: binding; settings: 1 μM in DMSO
T4 construct: purchased DiscoverX scanMAX Kinase analysis panel
Text: as §1

[5] = target: T5, cSNK1D (Homo sapiens, UniProt P48730); assay: scanMAX Kinase analysis panel (DiscoverX); assay type: binding
T5 construct: purchased DiscoverX
Text: as §1

[6] = test system: PC-9 cell line; assay: Lung cancer cell colony formation inhibition; assay type: cell-based, human; settings: concomitant treatment with Gefitinib or Osimertinib, vs single treatment or Harmine, from 10 days, FIG. 1
Text: Specifically, the PC-9 cell line was purchased from the ECACC (European Collection of Authenticated Cell Cultures), and RPMI-1640 with 10% FBS and 1% penicillin streptomycin was used. PC-9GR cells cultured with slow and sustained exposure to Gefitinib (manufactured by Selleckchem) were serially cultured with 1 μmol/L Gefitinib.
(§2) The remaining colony-forming cells were fixed with methanol (1%) and formaldehyde (1%), then dyed with 0.5% crystal violet before photographing each well.

[7] = test system: H1975 cell line; assay: Lung cancer cell colony formation inhibition; assay type: cell-based; settings: concomitant treatment with Gefitinib or Osimertinib, vs single treatment or Harmine, from 10 days, FIG. 1
Text: Specifically, the H1975 cell line was purchased from the ATCC (American Type Culture Collection, and RPMI-1640 with 10% FBS and 1% penicillin streptomycin was used.
as §2

[8] = test system: PC-9 lung cancer cells; assay: Anticancer effect in mouse model with PC-9 lung cancer cells; assay type: in vivo, Balb/c Nude Mice; settings: PC-9 model
Description: (§3) The PC-9 cell line was purchased from NanJing Cobioer Biological Technology Co., Ltd. Cells were kept in RPMI-1640 containing 10% FBS, and cultured in a 37° C. humidified cell culture incubator at 5% C2. All animal experiments were carried out according to the Animal Use and Management Guidelines of Shanghai Medicilon Inc. Under sterile conditions, 2×10^6 PC-9 tumor cells (0.1 mL, cell:Matrigel®=1:1) was administered to the right waist of each animal by S.C. administration. Tumor size and animal body weight were measured twice weekly, and clinical symptoms were recorded daily. The mice will be administered individually according to most recent body weight. The tumors were measured using calipers using two measurements, length (a) and width (b). The volume of the tumors was calculated individually as follows, from the two measured diameters of the tumors: tumor volume (mm^3)=(a×b^2)/2.

[9] = test system: NCI-H1975 lung cancer cells; assay: Anticancer effect in mouse model with NCI-H1975 lung cancer cells; assay type: in vivo, Balb/c Nude Mice
Description: as §3, with “NCI-H1975” for “PC-9”, “the Institute of Biochemistry and Cell Biology (Shanghai Institutes for” for “NanJing Cobioer”, “Sciences, CAS).” for “Technology Co., Ltd.”, “CO2.” for “C2.”, “Under sterile conditions, 2×10^6 PC-9 tumor cells (0.1 mL, cell:Matrigel®=1:1) was administered to the right waist of each animal by S.C. administration.” left out

[10] = test system: 3LL lung cancer; assay: Anticancer effect in 3LL lung cancer transplant mouse model; assay type: in vivo, female C57BL/6 mouse
Description: (§4) The 3LL cells were cultured in Hams F10:L15=3:7 culture medium, the EMT-6 cells were cultured in Waymouth's MB 752/1 culture medium, and the MC38 cells were cultured in a DMEM culture medium with 10% FBS and 1% penicillin streptomycin, at 37° C. in a 5% CO2 humidified cell culture incubator.
(§5) The mouse PD-1 antibody (BE-0146), PD-L1 antibody (BE-0101), and CTLA-4 antibody (BE-0131) were purchased from BioXcell.
(§6) All animal tests were carried out through WuXi AppTec.

[11] = test system: MC38 colon cancer; assay: Anticancer effect in MC38 colon cancer transplant mouse model; assay type: in vivo, female C57BL/6 mouse
Description: as §4, §5, §6

[12] = test system: EMT6 breast cancer; assay: Anticancer effect in EMT6 breast cancer transplant mouse model; assay type: in vivo, female C57BL/6 mouse; settings: singular treatment, 45, 60, 75 mg/kg po BID, FIG. 6a
Description: as §4, §6

[13] = test system: Ba/F3 EGFR L858R/T790M/C797S; assay: EGFR expression after treatment, western blot; assay type: cell-based; settings: 0.5, 1.2 and 5 μM, 4 or 24 hours, FIG. 7
Description: (§7) For the Ba/F3 EGFR L858R/T790M/C797S cell line, Ba/F3 naive cells purchased from DSMZ were transfected with EGFR L858R/T790M/C797S […] DNA using lipofectamine, and a cell line selected using 1 μg/ml puromycin for 2 weeks was used. Here, the culture medium used was RPMI-1640 with 10% FBS and 1% penicillin streptomycin. The NCI-H2228 and CAL-27 cell lines were purchased from ATCC, and for culturing RPMI-1640 with 10% FBS and 1% penicillin streptomycin was used for NCI-H2228, while for CAL-27 DMEM with 10% FBS and 1% penicillin streptomycin was used.
(§8) As needed, culturing was performed for 1 hour with Cyclohexamine at 30 μg/mL concentration, followed by 15 minutes EGF treatment at a concentration of 100 ng/mL. For the phosphoarray experiment, DYRK1a siRNA was reacted with HEK293T cells for 48 hours at 30 nM concentration, confirming inhibition of DYRK1a expression in the cells. These were used as the control for the main experiment.

[14] = test system: NCI-H2228; assay: EGFR expression and signalling after treatment, western blot; assay type: cell-based; settings: FIG. 7
Description: as §7, §8

[15] = test system: CAL-27; assay: EGFR expression after treatment, western blot or phosphoarray; assay type: cell-based; settings: FIG. 7
Description: as §7, §8

[16] = test system: Ba/F3 EGFR L858R/T790M/C797S cells; assay: Cell growth inhibition, celltiterglo; assay type: cell-based; settings: 72 hours, concomitant use with Osimertinib, compared with same amount of Harmine, FIG. 8
Description: The cells were treated for 72 hours using a serially diluted compound. The cell activity inhibition results for the compounds were measured using celltiterglo.

[17] = singular treatment, 45, 60, 75 mg/kg po BID, FIG. 6a

T2 sequence (O00444 whole entry): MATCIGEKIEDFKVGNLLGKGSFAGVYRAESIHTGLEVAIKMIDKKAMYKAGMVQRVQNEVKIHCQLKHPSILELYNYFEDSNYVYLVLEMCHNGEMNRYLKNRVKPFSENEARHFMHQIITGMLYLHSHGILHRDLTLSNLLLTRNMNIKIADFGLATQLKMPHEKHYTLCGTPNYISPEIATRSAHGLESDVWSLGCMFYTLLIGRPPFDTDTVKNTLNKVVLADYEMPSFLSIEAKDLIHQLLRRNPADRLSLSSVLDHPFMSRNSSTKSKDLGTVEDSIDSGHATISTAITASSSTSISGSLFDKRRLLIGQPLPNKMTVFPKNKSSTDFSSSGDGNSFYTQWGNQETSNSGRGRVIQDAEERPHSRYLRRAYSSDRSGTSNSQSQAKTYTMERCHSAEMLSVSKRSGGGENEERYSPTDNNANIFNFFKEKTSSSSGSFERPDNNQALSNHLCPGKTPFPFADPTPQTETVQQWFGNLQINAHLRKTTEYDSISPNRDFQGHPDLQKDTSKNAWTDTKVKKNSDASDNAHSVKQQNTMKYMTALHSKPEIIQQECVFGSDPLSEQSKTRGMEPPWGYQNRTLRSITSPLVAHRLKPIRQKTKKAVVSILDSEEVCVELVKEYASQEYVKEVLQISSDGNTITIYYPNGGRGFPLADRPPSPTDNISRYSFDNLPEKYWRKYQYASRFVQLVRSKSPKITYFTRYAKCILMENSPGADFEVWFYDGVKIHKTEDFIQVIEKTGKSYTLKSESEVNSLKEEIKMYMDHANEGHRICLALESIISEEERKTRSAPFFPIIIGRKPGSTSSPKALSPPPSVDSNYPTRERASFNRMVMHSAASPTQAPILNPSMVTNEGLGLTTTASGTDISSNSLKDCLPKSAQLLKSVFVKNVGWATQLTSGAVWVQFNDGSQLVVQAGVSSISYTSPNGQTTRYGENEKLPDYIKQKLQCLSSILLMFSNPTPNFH
T3 sequence (Q9BYT3 whole entry): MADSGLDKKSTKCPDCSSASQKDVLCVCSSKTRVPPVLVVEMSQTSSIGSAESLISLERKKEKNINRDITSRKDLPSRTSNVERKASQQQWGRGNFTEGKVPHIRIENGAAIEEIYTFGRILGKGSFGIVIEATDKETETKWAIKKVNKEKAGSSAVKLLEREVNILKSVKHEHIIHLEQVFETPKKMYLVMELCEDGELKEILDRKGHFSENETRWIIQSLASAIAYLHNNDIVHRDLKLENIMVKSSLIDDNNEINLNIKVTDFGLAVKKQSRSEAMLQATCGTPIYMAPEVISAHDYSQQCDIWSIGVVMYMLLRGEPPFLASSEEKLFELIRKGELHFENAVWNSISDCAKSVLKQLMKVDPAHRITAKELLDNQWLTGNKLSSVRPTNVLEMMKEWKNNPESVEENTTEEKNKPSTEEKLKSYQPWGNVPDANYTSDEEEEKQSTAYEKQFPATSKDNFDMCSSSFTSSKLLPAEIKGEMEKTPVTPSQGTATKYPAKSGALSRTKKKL
T5 sequence (P48730 whole entry): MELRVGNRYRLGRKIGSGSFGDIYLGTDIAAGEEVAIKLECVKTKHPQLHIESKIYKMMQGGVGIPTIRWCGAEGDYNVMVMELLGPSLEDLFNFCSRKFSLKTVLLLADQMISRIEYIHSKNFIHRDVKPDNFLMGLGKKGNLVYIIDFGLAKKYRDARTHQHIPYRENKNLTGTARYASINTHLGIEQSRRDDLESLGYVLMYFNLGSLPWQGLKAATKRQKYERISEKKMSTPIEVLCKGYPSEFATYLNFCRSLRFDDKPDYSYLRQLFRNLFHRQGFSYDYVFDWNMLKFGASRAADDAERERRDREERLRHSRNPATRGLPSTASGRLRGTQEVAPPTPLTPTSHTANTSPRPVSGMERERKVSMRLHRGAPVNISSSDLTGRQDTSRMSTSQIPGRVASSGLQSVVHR
T1 sequence (P15735 whole entry): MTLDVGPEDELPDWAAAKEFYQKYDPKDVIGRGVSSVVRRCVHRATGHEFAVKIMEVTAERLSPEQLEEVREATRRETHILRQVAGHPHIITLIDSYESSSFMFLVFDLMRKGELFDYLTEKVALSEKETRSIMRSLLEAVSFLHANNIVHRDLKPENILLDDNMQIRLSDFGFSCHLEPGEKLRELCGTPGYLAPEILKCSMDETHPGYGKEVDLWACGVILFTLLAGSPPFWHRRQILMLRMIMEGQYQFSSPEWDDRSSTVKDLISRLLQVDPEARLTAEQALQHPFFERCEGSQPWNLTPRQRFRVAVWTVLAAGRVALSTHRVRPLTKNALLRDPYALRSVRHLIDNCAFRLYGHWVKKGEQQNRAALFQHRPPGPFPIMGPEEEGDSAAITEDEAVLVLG

Compound: CCNc1cc(Nc2ccc(C(=O)N3CCC(N4CCOCC4)CC3)cc2OC)nc2[nH]cc(C(F)(F)F)c12 [Compound 1, (4-((4-(ethylamino)-3-(trifluoromethyl)-1H-pyrrolo[2,3-b]pyridine-6-yl)amino)-3-methoxyphenyl) (4-morpholinopiperidine-1-yl)methanone]
- inhibition at 1 µM [1]: ≥ 59%
- inhibition at 1 µM [2]: 40 to 59%
- inhibition at 1 µM [3]: ≥ 59%
- inhibition at 1 µM [4]: 40 to 59%
- inhibition at 1 µM [5]: ≥ 59%
- colony formation inhibition [6]: substantially inhibit formation of lung cancer cell colonies
- colony formation inhibition [7]: substantially inhibit formation of lung cancer cell colonies
- anticancer effect ([8]; Compound 1 20 or 40 mg/kg concomitant with Gefitinib 10 mg/kg, PO QD, vs Gefitinib alone, FIG. 4): substantially reduced lung cancer (PC-9) cells
- anticancer effect ([8]; Compound 1 20 or 40 mg/kg concomitant with Osimertinib 3 mg/kg, PO QD, vs Osimertinib alone, FIG. 3): substantially reduced lung cancer (PC-9) cells
- anticancer effect ([8]; singular treatment with Compound 1, 40 mg/kg PO QD): no anticancer effect
- anticancer effect ([9]; Compound 1 40 or 60 mg/kg concomitant with Osimertinib 3.5 mg/kg, PO QD, vs Osimertinib alone, FIG. 5): substantially reduced lung cancer (NCI-H1975) cells
- anticancer effect ([9]; singular treatment with Compound 1, 60 mg/kg PO QD): no anticancer effect
- tumor suppression effect ([10]; concomitant with PD-1, PD-L1 and CTLA-4 antibodies 10 mg/kg IP BIW, FIG. 6b): improved concomitant effect
- tumor suppression effect [10, 17]: insignificant tumor suppression effect
- tumor suppression effect ([11]; concomitant with PD-1, PD-L1 and CTLA-4 antibodies 10 mg/kg IP BIW, FIG. 6c): improved concomitant effect
- tumor suppression effect [11, 17]: insignificant tumor suppression effect
- tumor suppression effect [12]: insignificant tumor suppression effect
- EGFR expression [13]: reduced EGFR expression
- EGFR expression ([14]; 0.5, 1.2 and 5 μM, 4 or 24 hours): reduced EGFR expression
- p-AKT (S473) [14]: reduction
- p-Erk 1/2 (T202/Y204) [14]: reduction
- EGFR expression [15]: reduced EGFR expression
- p-EGFR (Y-1086) expression ([15]; phosphoarray, 2 μM, 48 hours): Reduction in expression
- cell growth inhibition effect [16]: improved cell growth inhibition effect compared to treatment with the same amount of Harmine
